Results as given in ChEMBL document CHEMBL1177804, “Synthesis and preliminary evaluation of neuroprotection of celastrol analogues in PC12 cells” (Bioorg Med Chem Lett, 2010).
pEC50, pIC50: −log10 of the molar value. Active and inactive are the calls of the source. The rule behind the calls is not given here.

How the values were obtained:
PC-12 [1] = experiment: Cytoprotective activity against t-BPH-induced cell damage in rat PC12 cells assessed as cell viability at 1.6 uM; type: functional, cell-based
PC-12 [2] = experiment: Cytoprotective activity against t-BPH-induced cell damage in rat PC12 cells assessed as cell viability at 0.1 uM; type: functional; conditions: read-out: Activity
PC-12 [3] = experiment: Cytoprotective activity against t-BPH-induced cell damage in rat PC12 cells assessed as cell viability at 0.8 uM; type: functional, cell-based
PC-12 [4] = experiment: Cytoprotective activity against t-BPH-induced cell damage in rat PC12 cells assessed as cell viability; type: functional, cell-based
LNCaP = experiment: Antitumor activity against human LNCAP cells; type: functional, cell-based
PC-12 [5] = experiment: Cytoprotective activity in rat PC12 cells assessed as protection against t-BHP-induced cell damage at 0.4 uM; type: functional
PC-12 [6] = experiment: Neuroprotective activity in t-BHP-induced damage in rat PC12 cells assessed as induction of Hsp70 expression by Western blotting; type: functional, cell-based
[7] = Antitumor activity against mouse SW1 cells; type: functional, cell-based
Rattus norvegicus = species on record: Rattus norvegicus; experiment: Cytoprotective activity against H2O2-induced damage in rat RINm cells; type: functional, cell-based

## CC1=C(O)/C(=N/O)C=C2C1=CC=C1[C@@]2(C)CC[C@@]2(C)[C@@H]3C[C@](C)(C(=O)O)CC[C@]3(C)CC[C@]12C
PC-12 [1]
  Activity: Active

## CCCOC(=O)[C@]1(C)CC[C@]2(C)CC[C@]3(C)C4=CC=C5C(=CC(=O)C(O)=C5C)[C@]4(C)CC[C@@]3(C)[C@@H]2C1
PC-12 [1]
  Activity: Active

## CC1=C(O)C(=O)C=C2C1=CC=C1[C@@]2(C)CC[C@@]2(C)[C@@H]3C[C@](C)(C(=O)O)CC[C@]3(C)CC[C@]12C [CELASTROL]
PC-12 [2]
  viability at 0.1 µM: 65%
PC-12 [3]
  Activity: inactive
PC-12 [4]
  pIC50: 5.50
PC-12 [1]
  Activity: Active
LNCaP
  pIC50: 5.60

## CC1=C(OC(=O)c2nc(C)c(C)nc2C)C(=O)C=C2C1=CC=C1[C@@]2(C)CC[C@@]2(C)[C@@H]3C[C@](C)(C(=O)O)CC[C@]3(C)CC[C@]12C
PC-12 [5]
  Activity: 76%
PC-12 [6]
  Activity: Dose-dependent effect

## COC(=O)[C@]1(C)CC[C@]2(C)CC[C@]3(C)C4=CC=C5C(=CC(=O)C(O)=C5C)[C@]4(C)CC[C@@]3(C)[C@@H]2C1 [PRISTIMERIN]
[7]
  pEC50: > 7.00

## CC1=C(OC(=O)CCCCC2CCSS2)C(=O)C=C2C1=CC=C1[C@@]2(C)CC[C@@]2(C)[C@@H]3C[C@](C)(C(=O)O)CC[C@]3(C)CC[C@]12C (some centres undefined)
PC-12 [5]
  Activity: inactive
Rattus norvegicus
  Activity: Active

## CC1=C(O)C(=O)C=C2C1=CC=C1[C@@]2(C)CC[C@@]2(C)[C@@H]3C[C@](C)(C(=O)OCc4ccccc4)CC[C@]3(C)CC[C@]12C
[7]
  pEC50: 6.52

## CC1=C(O)C(=O)C=C2C1=CC=C1[C@@]2(C)CC[C@@]2(C)[C@@H]3C[C@](C)(C(=O)N4CCN(C)CC4)CC[C@]3(C)CC[C@]12C
PC-12 [1]
  Activity: Dose-dependent effect
